tested on: Human RSV-A (“Long” strain); assay: RSV-A assay: inhibition of cytopathic effect in Hep-2 cells, ATPlite readout; type: cell-based, Human respiratory syncytial virus (HRSV); details: human respiratory syncytial virus, HEp-2, 120 h, read-out: Human RSV-A (“Long” strain) EC50
Method in brief: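 Cytopathic-effect protection was read as ATP content (ATPlite luminescence) after a 5-day incubation. Setup: Hep-2 cells at 8,000 per well, RSV-A Long at MOI 0.1, 2-fold serial compound dilutions in duplicate. Cytotoxicity (CC50) was measured on an identical uninfected plate run in parallel.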

O=C1Nc2ccccc2C(c2ccccc2)=N[C@@H]1Nc1nnc(-c2nnsc2N2CCOCC2)o1 [Example 292] and Cc1cc(-c2nnc(N[C@H]3N=C(c4ccccc4)c4ccccc4NC3=O)o2)c(N2CCOCC2)s1 [Example 330] cannot be ordered by EC50: under 400 nM for the first, under 400 nM for the second.

O=C1Nc2ccccc2C(c2ccccc2)=N[C@@H]1Nc1nnc(-c2ncc(C(F)(F)F)cc2C2CC2)o1 [Example 293] and CNc1cc(C(F)(F)F)cnc1-c1nnc(N[C@H]2N=C(c3ccccc3)c3ccccc3NC2=O)o1 [Example 307] cannot be ordered by EC50: over 800 nM for the first, over 800 nM for the second.

C[C@@H]1COCCN1c1cc(C(F)(F)F)cnc1-c1nnc(N[C@H]2N=C(c3ccccc3)c3ccccc3NC2=O)o1 [Example 294] and C[C@@H]1COCCN1c1cc(C#N)cnc1-c1nnc(N[C@H]2N=C(c3ccccc3)c3ccccc3NC2=O)o1 [Example 301] cannot be ordered by EC50: under 400 nM for the first, under 400 nM for the second.

COc1ccc(-c2nnc(N[C@H]3N=C(c4ccccc4)c4ccccc4NC3=O)o2)c(N2CCOCC2)n1 [Example 295] and N#Cc1ccc(N2CCOCC2)c(-c2nnc(N[C@H]3N=C(c4ccccc4)c4ccccc4NC3=O)o2)n1 [Example 324] cannot be ordered by EC50: under 400 nM for the first, under 400 nM for the second.

First: CN1CCN(c2cc(C(F)(F)F)cnc2-c2nnc(N[C@H]3N=C(c4ccccc4)c4ccccc4NC3=O)o2)CC1=O [Example 296]
Second: CN1CCN(c2cc(C(F)(F)F)cnc2-c2nnc(N[C@H]3N=C(c4ccccc4)c4ccccc4NC3=O)o2)CC1 [Example 327]
The EC50 of the first is higher: over 800 nM for the first, 400 to 800 nM for the second.

Compared with CC(C)(O)CNc1cc(C(F)(F)F)cnc1-c1nnc(N[C@H]2N=C(c3ccccc3)c3ccccc3NC2=O)o1 [Example 297], N#CCNc1cc(C(F)(F)F)cnc1-c1nnc(N[C@H]2N=C(c3ccccc3)c3ccccc3NC2=O)o1 [Example 331] is higher in EC50: under 400 nM for the first, over 800 nM for the second. The first is the more potent here.

COCCn1c(-c2nnc(N[C@H]3N=C(c4ccccc4)c4ccccc4NC3=O)o2)nc2ccccc21 [Example 298] and COCCn1ccnc1-c1nnc(N[C@H]2N=C(c3ccccc3)c3ccccc3NC2=O)o1 [Example 306] cannot be ordered by EC50: over 800 nM for the first, over 800 nM for the second.

O=C1Nc2ccccc2C(c2ccccc2)=N[C@@H]1Nc1nnc(-c2ncc(F)cc2N2CC3CCC(C2)O3)o1 [Example 299] and O=C1Nc2ccccc2C(c2ccccc2)=N[C@@H]1Nc1nnc(-c2ncc(C3CC3)cc2N2CC3CCC(C2)O3)o1 [Example 321] cannot be ordered by EC50: under 400 nM for the first, under 400 nM for the second.

CN(C)c1cc(C(F)(F)F)cnc1-c1nnc(N[C@H]2N=C(c3ccccc3)c3ccccc3NC2=O)o1 [Example 302] and CN(CC(C)(C)O)c1cc(C(F)(F)F)cnc1-c1nnc(N[C@H]2N=C(c3ccccc3)c3ccccc3NC2=O)o1 [Example 308] cannot be ordered by EC50: over 800 nM for the first, over 800 nM for the second.

COCCNc1cc(C(F)(F)F)cnc1-c1nnc(N[C@H]2N=C(c3ccccc3)c3ccccc3NC2=O)o1 [Example 305] and COCCNc1sc(C)nc1-c1nnc(N[C@H]2N=C(c3ccccc3)c3ccccc3NC2=O)o1 [Example 335] cannot be ordered by EC50: under 400 nM for the first, under 400 nM for the second.

N#Cc1ccc(-c2nnc(N[C@H]3N=C(c4ccccc4)c4ccccc4NC3=O)o2)c(-c2ccsc2)c1 [Example 309] and N#Cc1ccc(-c2nnc(N[C@H]3N=C(c4ccccc4)c4ccccc4NC3=O)o2)c(-c2ccoc2)c1 [Example 319] cannot be ordered by EC50: over 800 nM for the first, over 800 nM for the second.

COCCn1nccc1-c1nnc(N[C@H]2N=C(c3ccccc3)c3ccccc3NC2=O)o1 [Example 310] and O=C1Nc2ccccc2C(c2ccccc2)=N[C@@H]1Nc1nnc(-c2ccnn2-c2ccccc2)o1 [Example 349] cannot be ordered by EC50: over 800 nM for the first, over 800 nM for the second.

C#Cc1cnc(-c2nnc(N[C@H]3N=C(c4ccccc4)c4ccccc4NC3=O)o2)c(N2CCOCC2)c1 [Example 311] and N#Cc1cnc(-c2nnc(N[C@H]3N=C(c4ccccc4)c4ccccc4NC3=O)o2)c(N2CCOCC2)c1 [Example 325] cannot be ordered by EC50: under 400 nM for the first, under 400 nM for the second.

First: O=C1Nc2ccccc2C(c2ccccc2)=N[C@@H]1Nc1nnc(-c2ncc(C3=CCCCC3)cc2N2CCOCC2)o1 [Example 312]
Second: O=C1Nc2ccccc2C(c2ccccc2)=N[C@@H]1Nc1nnc(-c2ncc(N3CCCC3)cc2N2CCOCC2)o1 [Example 314]
The EC50 of the first is higher: 400 to 800 nM for the first, under 400 nM for the second.

O=C1Nc2ccccc2C(c2ccccc2)=N[C@@H]1Nc1nnc(-c2ncc(C3CCCCC3)cc2N2CCOCC2)o1 [Example 313] and O=C1Nc2ccccc2C(c2ccccc2)=N[C@@H]1Nc1nnc(-c2nc(C3CC3)ccc2N2CCOCC2)o1 [Example 318] cannot be ordered by EC50: under 400 nM for the first, under 400 nM for the second.

First: O=C1Nc2ccccc2C(c2ccccc2)=N[C@@H]1Nc1nnc(-c2ncc3ccccc3c2N2CCOCC2)o1 [Example 316]
Second: COc1ccccc1-c1nc(-c2nnc(N[C@H]3N=C(c4ccccc4)c4ccccc4NC3=O)o2)c(N2CCOCC2)s1 [Example 342]
The EC50 of the first is higher: over 800 nM for the first, under 400 nM for the second. The second is the more potent here.

O=C1Nc2ccccc2C(c2ccccc2)=N[C@@H]1Nc1nnc(-c2ccc(N3CCCC3)cc2N2CCOCC2)o1 [Example 317] and O=C1Nc2ccccc2C(c2ccccc2)=N[C@@H]1Nc1nnc(-c2occc2N2CCOCC2)o1 [Example 348] cannot be ordered by EC50: under 400 nM for the first, under 400 nM for the second.

Cc1noc(C)c1-c1cc(C#N)ccc1-c1nnc(N[C@H]2N=C(c3ccccc3)c3ccccc3NC2=O)o1 [Example 320] and Cc1nc(-c2nnc(N[C@H]3N=C(c4ccccc4)c4ccccc4NC3=O)o2)c(Cl)s1 [Example 344] cannot be ordered by EC50: over 800 nM for the first, over 800 nM for the second.

Going from N#Cc1cc(N2CCOCC2)c(-c2nnc(N[C@H]3N=C(c4ccccc4)c4ccccc4NC3=O)o2)s1 [Example 323] to CS(=O)(=O)c1cnc(-c2nnc(N[C@H]3N=C(c4ccccc4)c4ccccc4NC3=O)o2)c(N2CCOCC2)c1 [Example 332], the EC50 rises from under 400 nM to over 800 nM. The first is the more potent here.

First: C[C@@H]1CN(c2cc(C#N)cnc2-c2nnc(N[C@H]3N=C(c4ccccc4)c4ccccc4NC3=O)o2)CCO1 [Example 326]
Second: C[C@H]1CN(c2cc(C#N)cnc2-c2nnc(N[C@H]3N=C(c4ccccc4)c4ccccc4NC3=O)o2)CCO1 [Example 329]
The EC50 of the first is higher: 400 to 800 nM for the first, under 400 nM for the second.

First: O=C1Nc2ccccc2C(c2ccccc2)=N[C@@H]1Nc1nnc(-c2ncc(C(F)(F)F)cc2N2CCC(O)CC2)o1 [Example 328]
Second: N#Cc1cnc(-c2nnc(N[C@H]3N=C(c4ccccc4)c4ccccc4NC3=O)o2)c(N2C3CCC2COC3)c1 [Example 333]
The EC50 of the first is higher: over 800 nM for the first, 400 to 800 nM for the second. The second is the more potent here.

Cc1nc(-c2nnc(N[C@H]3N=C(c4ccccc4)c4ccccc4NC3=O)o2)c(N2CCOCC2)o1 [Example 337] and Cc1nc(-c2nnc(N[C@H]3N=C(c4ccccc4)c4ccccc4NC3=O)o2)c(C2CCOCC2)s1 [Example 346, (S)-3-((5-(2-methyl-5-(tetrahydro-2H-pyran-4-yl)thiazol-4-yl)-1,3,4-oxadiazol-2-yl)amino)-5-phenyl-1,3-dihydro-2H-benzo[e][1,4]diazepin-2-one] cannot be ordered by EC50: under 400 nM for the first, under 400 nM for the second.

Compared with Cc1nc(-c2nnc(N[C@H]3N=C(c4ccccc4)c4ccccc4NC3=O)o2)cs1 [Example 343], Cc1nc(-c2nnc(N[C@H]3N=C(c4ccccc4)c4ccccc4NC3=O)o2)c(C2=CCOCC2)s1 [Example 345, (S)-3-((5-(5-(3,6-dihydro-2H-pyran-4-yl)-2-methylthiazol-4-yl)-1,3,4-oxadiazol-2-yl)amino)-5-phenyl-1,3-dihydro-2H-benzo[e][1,4]diazepin-2-one] is lower in EC50: over 800 nM for the first, under 400 nM for the second.

First: O=C1Nc2ccccc2C(c2ccccc2)=N[C@@H]1Nc1nnc(-c2ncsc2C2=CCOCC2)o1 [Example 347]
Second: O=C1Nc2ccccc2C(c2ccccc2)=NC1Nc1nnc(-c2ccccc2C2=CCOCC2)o1 (stereo not shown) [Example 353, 3-((5-(2-(3,6-dihydro-2H-pyran-4-yl)phenyl)-1,3,4-oxadiazol-2-yl)amino)-5-phenyl-1,3-dihydro-2H-benzo[e][1,4]diazepin-2-one]
The EC50 of the first is lower: under 400 nM for the first, over 800 nM for the second. The first is the more potent here.

First: O=C1Nc2ccccc2C(c2ccccc2)=N[C@@H]1Nc1nnc(-c2cnn(-c3ccccc3)c2)o1 [Example 350]
Second: O=C1Nc2ccccc2C(c2ccccc2)=NC1Nc1ncc(-c2ccccc2)cn1 (stereo not shown) [Example 371]
The EC50 of the first is lower: 400 to 800 nM for the first, over 800 nM for the second.

O=C1Nc2ccccc2C(c2ccccc2)=NC1Nc1nnc(-c2ccccc2C2CCOCC2)o1 (stereo not shown) [Example 354] and O=C1Nc2c(F)cccc2C(c2ccccc2)=N[C@H]1Nc1nnc(-c2ccccc2N2CCOCC2)o1 [Example 355b] cannot be ordered by EC50: over 800 nM for the first, over 800 nM for the second.

Compared with O=C1Nc2c(F)cccc2C(c2ccccc2)=NC1Nc1nnc(-c2ccc(N3CCOCC3)cc2)o1 (stereo not shown) [Example 356], O=C1Nc2c(Cl)cccc2C(c2ccccc2)=NC1Nc1nnc(-c2ccccc2N2CCOCC2)o1 (stereo not shown) [Example 362] is higher in EC50: 400 to 800 nM for the first, over 800 nM for the second.

First: N#Cc1cnc(-c2nnc(N[C@H]3N=C(c4ccccc4)c4cccc(F)c4NC3=O)o2)c(N2CCOCC2)c1 [Example 361]
Second: O=C1Nc2ccccc2C(c2ccccc2)=NC1Nc1nnc(-c2ccccc2N2CCOCC2)[nH]1 (stereo not shown) [Example 367]
The EC50 of the first is lower: under 400 nM for the first, over 800 nM for the second.

Compared with O=C1Nc2ccccc2C(c2ccccc2)=NC1Nc1nnc(-c2ccc(F)cc2)[nH]1 (stereo not shown) [Example 363], N#Cc1ccc(-c2nnc(NC3N=C(c4ccccc4)c4ccccc4NC3=O)[nH]2)cc1 (stereo not shown) [Example 365] is lower in EC50: over 800 nM for the first, 400 to 800 nM for the second.

O=C1Nc2ccccc2C(c2ccccc2)=NC1Nc1nnc(-c2ccncc2)[nH]1 (stereo not shown) [Example 366] and O=C1Nc2ccccc2C(c2ccccc2)=NC1Nc1ccc(-c2ccncc2)nn1 (stereo not shown) [Example 375] cannot be ordered by EC50: over 800 nM for the first, over 800 nM for the second.

Compared with N#Cc1ccc(-c2cnc(NC3N=C(c4ccccc4)c4ccccc4NC3=O)o2)cc1 (stereo not shown) [Example 368], O=C1Nc2ccccc2C(c2ccccc2)=NC1Nc1ncc(-c2ccc(F)cc2)o1 (stereo not shown) [Example 369] is higher in EC50: 400 to 800 nM for the first, over 800 nM for the second.

O=C1Nc2ccccc2C(c2ccccc2)=NC1Nc1ncc(-c2ccc(Br)cc2)o1 (stereo not shown) [Example 370] and O=C1Nc2ccccc2C(c2ccccc2)=NC1Nc1cnc(-c2ccc(F)cc2)cn1 (stereo not shown) [Example 373] cannot be ordered by EC50: over 800 nM for the first, over 800 nM for the second.

O=C1Nc2ccccc2C(c2ccccc2)=NC1Nc1nnc(C2CC2)[nH]1 (stereo not shown) [Example 372] and O=C1Nc2ccccc2C(c2ccccc2)=NC1Nc1ccc(-c2ccc(F)cc2)nn1 (stereo not shown) [Example 374] cannot be ordered by EC50: over 800 nM for the first, over 800 nM for the second.

Molecule COc1ccc(-c2ccc(NC3N=C(c4ccccc4)c4ccccc4NC3=O)nn2)cc1 (stereo not shown) [Example 376] has an EC50 of over 800 nM.

Source: patent US11390631B1, “Benzodiazepine derivatives as RSV inhibitors” (priority 2015, dated 2022)
